Numbers after ± are expanded uncertainties.
Experiments:
[1] = for molar entropy: 101.33 kPa; for Normal melting temperature: DTA
[2] = Molar enthalpy of transition or fusion; conditions: Crystal; DSC
[3] = 1 K, Crystal, relaxation calorimetry
[4] = 2 K, Crystal, relaxation calorimetry
[5] = 3 K, Crystal, relaxation calorimetry
[6] = 4 K, Crystal, relaxation calorimetry
[7] = 5 K, Crystal, relaxation calorimetry
[8] = 6 K, Crystal, relaxation calorimetry
[9] = 7 K, Crystal, relaxation calorimetry
[10] = 8 K, Crystal, relaxation calorimetry
[11] = 9 K, Crystal, relaxation calorimetry
[12] = 10 K, Crystal, relaxation calorimetry
[13] = 15 K, Crystal, relaxation calorimetry
[14] = 20 K, Crystal, relaxation calorimetry
[15] = 25 K, Crystal, relaxation calorimetry
[16] = 30 K, Crystal, relaxation calorimetry
[17] = 35 K, Crystal, relaxation calorimetry
[18] = 40 K, Crystal, relaxation calorimetry
[19] = 45 K, Crystal, relaxation calorimetry
[20] = 50 K, Crystal, relaxation calorimetry
[21] = 55 K, Crystal, relaxation calorimetry
[22] = 60 K, Crystal, relaxation calorimetry
[23] = 65 K, Crystal, relaxation calorimetry
[24] = 70 K, Crystal, relaxation calorimetry
[25] = 75 K, Crystal, relaxation calorimetry
[26] = 80 K, Crystal, relaxation calorimetry
[27] = 85 K, Crystal, relaxation calorimetry
[28] = 90 K, Crystal, relaxation calorimetry
[29] = 95 K, Crystal, relaxation calorimetry
[30] = 100 K, Crystal, relaxation calorimetry
[31] = 110 K, Crystal, relaxation calorimetry
[32] = 120 K, Crystal, relaxation calorimetry
[33] = 130 K, Crystal, relaxation calorimetry
[34] = 140 K, Crystal, relaxation calorimetry
[35] = 150 K, Crystal, relaxation calorimetry
[36] = 160 K, Crystal, relaxation calorimetry
[37] = 170 K, Crystal, relaxation calorimetry
[38] = 180 K, Crystal, relaxation calorimetry
[39] = 190 K, Crystal, relaxation calorimetry
[40] = 200 K, Crystal, relaxation calorimetry
[41] = 210 K, Crystal, relaxation calorimetry
[42] = 220 K, Crystal, relaxation calorimetry
[43] = 230 K, Crystal, relaxation calorimetry
[44] = 240 K, Crystal, relaxation calorimetry
[45] = 250 K, Crystal, relaxation calorimetry
[46] = 260 K, Crystal, relaxation calorimetry
[47] = 270 K, Crystal, relaxation calorimetry
[48] = 273.15 K, Crystal, relaxation calorimetry
[49] = 280 K, Crystal, relaxation calorimetry
[50] = 290 K, Crystal, relaxation calorimetry
[51] = 298.15 K, Crystal, relaxation calorimetry
[52] = 300 K, Crystal, relaxation calorimetry
[53] = 305 K, Crystal, Small sample (50 mg) DSC
[54] = 310 K, Crystal, Small sample (50 mg) DSC
[55] = 315 K, Crystal, Small sample (50 mg) DSC
[56] = 320 K, Crystal, Small sample (50 mg) DSC
[57] = 325 K, Crystal, Small sample (50 mg) DSC
[58] = 330 K, Crystal, Small sample (50 mg) DSC
[59] = 335 K, Crystal, Small sample (50 mg) DSC
[60] = 340 K, Crystal, Small sample (50 mg) DSC
[61] = 345 K, Crystal, Small sample (50 mg) DSC
[62] = 350 K, Crystal, Small sample (50 mg) DSC
[63] = 355 K, Crystal, Small sample (50 mg) DSC
[64] = 360 K, Crystal, Small sample (50 mg) DSC
[65] = 405 K, Liquid, Small sample (50 mg) DSC
[66] = 410 K, Liquid, Small sample (50 mg) DSC
[67] = 415 K, Liquid, Small sample (50 mg) DSC
[68] = 420 K, Liquid, Small sample (50 mg) DSC
[69] = 425 K, Liquid, Small sample (50 mg) DSC
[70] = 430 K, Liquid, Small sample (50 mg) DSC
[71] = 435 K, Liquid, Small sample (50 mg) DSC

OC[C@@H](O)[C@@H](O)CO [meso-1,2,3,4-butanetetrol]
molar entropy [1, 3]: 0.0005942 ± 6.7e-05 J/K/mol
molar entropy [1, 4]: 0.002515 ± 0.00024 J/K/mol
molar entropy [1, 5]: 0.007205 ± 0.00068 J/K/mol
molar entropy [1, 6]: 0.01633 ± 0.0015 J/K/mol
molar entropy [1, 7]: 0.03184 ± 0.003 J/K/mol
molar entropy [1, 8]: 0.05604 ± 0.0052 J/K/mol
molar entropy [1, 9]: 0.09153 ± 0.0084 J/K/mol
molar entropy [1, 10]: 0.1411 ± 0.013 J/K/mol
molar entropy [1, 11]: 0.2079 ± 0.019 J/K/mol
molar entropy [1, 12]: 0.2944 ± 0.027 J/K/mol
molar entropy [1, 13]: 1.077 ± 0.099 J/K/mol
molar entropy [1, 14]: 2.466 ± 0.23 J/K/mol
molar entropy [1, 15]: 4.373 ± 0.4 J/K/mol
molar entropy [1, 16]: 6.67 ± 0.61 J/K/mol
molar entropy [1, 17]: 9.244 ± 0.85 J/K/mol
molar entropy [1, 18]: 12.02 ± 1.1 J/K/mol
molar entropy [1, 19]: 14.94 ± 1.4 J/K/mol
molar entropy [1, 20]: 17.96 ± 1.6 J/K/mol
molar entropy [1, 21]: 21.05 ± 1.9 J/K/mol
molar entropy [1, 22]: 24.19 ± 2.2 J/K/mol
molar entropy [1, 23]: 27.37 ± 2.5 J/K/mol
molar entropy [1, 24]: 30.57 ± 2.8 J/K/mol
molar entropy [1, 25]: 33.79 ± 3.1 J/K/mol
molar entropy [1, 26]: 37.01 ± 3.4 J/K/mol
molar entropy [1, 27]: 40.23 ± 3.7 J/K/mol
molar entropy [1, 28]: 43.44 ± 4 J/K/mol
molar entropy [1, 29]: 46.65 ± 4.3 J/K/mol
molar entropy [1, 30]: 49.83 ± 4.6 J/K/mol
molar entropy [1, 31]: 56.17 ± 5.2 J/K/mol
molar entropy [1, 32]: 62.43 ± 5.7 J/K/mol
molar entropy [1, 33]: 68.62 ± 6.3 J/K/mol
molar entropy [1, 34]: 74.74 ± 6.9 J/K/mol
molar entropy [1, 35]: 80.8 ± 7.4 J/K/mol
molar entropy [1, 36]: 86.79 ± 8 J/K/mol
molar entropy [1, 37]: 92.72 ± 8.5 J/K/mol
molar entropy [1, 38]: 98.61 ± 9.1 J/K/mol
molar entropy [1, 39]: 104.44 ± 9.6 J/K/mol
molar entropy [1, 40]: 110.22 ± 10 J/K/mol
molar entropy [1, 41]: 115.97 ± 11 J/K/mol
molar entropy [1, 42]: 121.68 ± 11 J/K/mol
molar entropy [1, 43]: 127.36 ± 12 J/K/mol
molar entropy [1, 44]: 133.01 ± 12 J/K/mol
molar entropy [1, 45]: 138.64 ± 13 J/K/mol
molar entropy [1, 46]: 144.24 ± 13 J/K/mol
molar entropy [1, 47]: 149.82 ± 14 J/K/mol
molar entropy [1, 48]: 151.57 ± 14 J/K/mol
molar entropy [1, 49]: 155.38 ± 14 J/K/mol
molar entropy [1, 50]: 160.92 ± 15 J/K/mol
molar entropy [1, 51]: 165.43 ± 15 J/K/mol
molar entropy [1, 52]: 166.46 ± 15 J/K/mol
molar entropy [1, 53]: 169.22 ± 31 J/K/mol
molar entropy [1, 54]: 172 ± 31 J/K/mol
molar entropy [1, 55]: 174.78 ± 32 J/K/mol
molar entropy [1, 56]: 177.57 ± 32 J/K/mol
molar entropy [1, 57]: 180.36 ± 33 J/K/mol
molar entropy [1, 58]: 183.15 ± 33 J/K/mol
molar entropy [1, 59]: 185.94 ± 34 J/K/mol
molar entropy [1, 60]: 188.74 ± 34 J/K/mol
molar entropy [1, 61]: 191.53 ± 35 J/K/mol
molar entropy [1, 62]: 194.32 ± 35 J/K/mol
molar entropy [1, 63]: 197.11 ± 36 J/K/mol
molar entropy [1, 64]: 199.9 ± 36 J/K/mol
molar entropy ([1]; 365 K, Crystal, Small sample (50 mg) DSC): 202.7 ± 37 J/K/mol
molar entropy ([1]; 370 K, Crystal, Small sample (50 mg) DSC): 205.49 ± 37 J/K/mol
molar entropy ([1]; 375 K, Crystal, Small sample (50 mg) DSC): 208.29 ± 38 J/K/mol
molar entropy ([1]; 380 K, Crystal, Small sample (50 mg) DSC): 211.1 ± 38 J/K/mol
molar entropy ([1]; 385 K, Crystal, Small sample (50 mg) DSC): 213.99 ± 39 J/K/mol
molar entropy ([1]; 390 K, Crystal, Small sample (50 mg) DSC): 217.51 ± 39 J/K/mol
molar entropy [1, 65]: 333.59 ± 60 J/K/mol
molar entropy [1, 66]: 338.24 ± 61 J/K/mol
molar entropy [1, 67]: 342.55 ± 62 J/K/mol
molar entropy [1, 68]: 346.8 ± 63 J/K/mol
molar entropy [1, 69]: 351 ± 64 J/K/mol
molar entropy [1, 70]: 355.15 ± 64 J/K/mol
molar entropy [1, 71]: 359.26 ± 65 J/K/mol
Normal melting temperature ([1]; Crystal): 121.67 ± 0.61 °C
Molar enthalpy of transition or fusion [2]: 44.6 ± 5.4 kJ/mol

OC[C@@H](O)[C@H](O)[C@@H](O)CO [xylitol]
molar entropy [1, 3]: 0.0003173 ± 4.7e-05 J/K/mol
molar entropy [1, 4]: 0.002178 ± 0.00021 J/K/mol
molar entropy [1, 5]: 0.007217 ± 0.00068 J/K/mol
molar entropy [1, 6]: 0.01724 ± 0.0016 J/K/mol
molar entropy [1, 7]: 0.03429 ± 0.0032 J/K/mol
molar entropy [1, 8]: 0.06064 ± 0.0056 J/K/mol
molar entropy [1, 9]: 0.09884 ± 0.0091 J/K/mol
molar entropy [1, 10]: 0.1517 ± 0.014 J/K/mol
molar entropy [1, 11]: 0.2221 ± 0.02 J/K/mol
molar entropy [1, 12]: 0.3121 ± 0.029 J/K/mol
molar entropy [1, 13]: 1.099 ± 0.1 J/K/mol
molar entropy [1, 14]: 2.464 ± 0.23 J/K/mol
molar entropy [1, 15]: 4.334 ± 0.4 J/K/mol
molar entropy [1, 16]: 6.612 ± 0.61 J/K/mol
molar entropy [1, 17]: 9.217 ± 0.85 J/K/mol
molar entropy [1, 18]: 12.09 ± 1.1 J/K/mol
molar entropy [1, 19]: 15.19 ± 1.4 J/K/mol
molar entropy [1, 20]: 18.47 ± 1.7 J/K/mol
molar entropy [1, 21]: 21.88 ± 2 J/K/mol
molar entropy [1, 22]: 25.4 ± 2.3 J/K/mol
molar entropy [1, 23]: 29.01 ± 2.7 J/K/mol
molar entropy [1, 24]: 32.7 ± 3 J/K/mol
molar entropy [1, 25]: 36.44 ± 3.3 J/K/mol
molar entropy [1, 26]: 40.21 ± 3.7 J/K/mol
molar entropy [1, 27]: 44.01 ± 4 J/K/mol
molar entropy [1, 28]: 47.82 ± 4.4 J/K/mol
molar entropy [1, 29]: 51.65 ± 4.7 J/K/mol
molar entropy [1, 30]: 55.48 ± 5.1 J/K/mol
molar entropy [1, 31]: 63.13 ± 5.8 J/K/mol
molar entropy [1, 32]: 70.74 ± 6.5 J/K/mol
molar entropy [1, 33]: 78.31 ± 7.2 J/K/mol
molar entropy [1, 34]: 85.82 ± 7.9 J/K/mol
molar entropy [1, 35]: 93.27 ± 8.6 J/K/mol
molar entropy [1, 36]: 100.65 ± 9.2 J/K/mol
molar entropy [1, 37]: 107.96 ± 9.9 J/K/mol
molar entropy [1, 38]: 115.21 ± 11 J/K/mol
molar entropy [1, 39]: 122.4 ± 11 J/K/mol
molar entropy [1, 40]: 129.55 ± 12 J/K/mol
molar entropy [1, 41]: 136.64 ± 13 J/K/mol
molar entropy [1, 42]: 143.7 ± 13 J/K/mol
molar entropy [1, 43]: 150.72 ± 14 J/K/mol
molar entropy [1, 44]: 157.72 ± 14 J/K/mol
molar entropy [1, 45]: 164.69 ± 15 J/K/mol
molar entropy [1, 46]: 171.65 ± 16 J/K/mol
molar entropy [1, 47]: 178.59 ± 16 J/K/mol
molar entropy [1, 48]: 180.78 ± 17 J/K/mol
molar entropy [1, 49]: 185.53 ± 17 J/K/mol
molar entropy [1, 50]: 192.47 ± 18 J/K/mol
molar entropy [1, 51]: 198.13 ± 18 J/K/mol
molar entropy [1, 52]: 199.41 ± 18 J/K/mol
molar entropy [1, 53]: 202.93 ± 19 J/K/mol
molar entropy [1, 54]: 206.47 ± 19 J/K/mol
molar entropy [1, 55]: 210.02 ± 19 J/K/mol
molar entropy [1, 56]: 213.58 ± 20 J/K/mol
molar entropy [1, 57]: 217.15 ± 20 J/K/mol
molar entropy [1, 58]: 220.72 ± 20 J/K/mol
molar entropy [1, 59]: 224.31 ± 21 J/K/mol
molar entropy [1, 60]: 227.9 ± 21 J/K/mol
molar entropy [1, 61]: 231.52 ± 21 J/K/mol
molar entropy [1, 62]: 235.17 ± 22 J/K/mol
molar entropy [1, 63]: 238.92 ± 22 J/K/mol
molar entropy [1, 64]: 243.05 ± 22 J/K/mol
molar entropy ([1]; 380 K, Liquid, Small sample (50 mg) DSC): 367.99 ± 34 J/K/mol
molar entropy ([1]; 385 K, Liquid, Small sample (50 mg) DSC): 373.77 ± 35 J/K/mol
molar entropy ([1]; 390 K, Liquid, Small sample (50 mg) DSC): 379.42 ± 35 J/K/mol
molar entropy ([1]; 395 K, Liquid, Small sample (50 mg) DSC): 385 ± 36 J/K/mol
molar entropy ([1]; 400 K, Liquid, Small sample (50 mg) DSC): 390.52 ± 36 J/K/mol
molar entropy [1, 65]: 395.99 ± 37 J/K/mol
molar entropy [1, 66]: 401.41 ± 37 J/K/mol
molar entropy [1, 67]: 406.78 ± 38 J/K/mol
molar entropy [1, 68]: 412.1 ± 38 J/K/mol
molar entropy [1, 69]: 417.37 ± 39 J/K/mol
molar entropy [1, 70]: 422.59 ± 39 J/K/mol
molar entropy [1, 71]: 427.75 ± 40 J/K/mol
Normal melting temperature ([1]; Crystal): 93.0 ± 0.61 °C
Molar enthalpy of transition or fusion [2]: 39.5 ± 2.5 kJ/mol

— the NIST ThermoML archive (doi:10.1016/j.jct.2017.08.004)
